Tested on: rat MAPCs
Experiment: In vitro hepatic differentiation of rat MAPCs, read out by qRT-PCR
Assay type: cell-based
Experimental: Undifferentiated MAPCs were expanded at large scale until several million cells were obtained. Cells then were plated at 50,000-60,000 cells/cm^2 in Matrigel (2%) coated wells. Initially, cells were cultured in expansion medium until they reached 80-90% confluency 16 hours later. Then, cells were washed twice with PBS and the medium was switched to differentiation medium. Basal differentiation medium consisted of DMEM (60%), MCDB (40%), ascorbic acid (IX), penicillin/streptomycin (1×), beta-mercaptoethanol, ITS (0.25×), LA-BSA (0.25×) and dexamethasone (10^-6M). Understanding the molecular signals favoring liver development is essential for the development of a logical in vitro differentiation protocol to modulate stem cell differentiation towards the hepatic fate. With this in mind, different cytokines at variable concentrations and chronological orders were investigated for their hepatocyte inducing capacity in […]. Cytokines tested included Nodal, its co-receptor Cripto, ActivinA, Wnt3a, BMP4, bFGF, aFGF, FGF8b, EGF, Nicotinamide, heparan sulphate proteoglycan, Oncostatin M, HGF and Follistatin. All cytokines were purchased from R&D, Minneapolis, USA. Apart from the cytokines, medium components also play an important role in guiding cells towards a specific fate. […]

## insulin: medium component (ITS); a lower amount was used to avoid adipogenesis
High concentration of dexamethasone together with low concentration of insulin in differentiation medium
  expression of mature markers (albumin, TAT): enhanced expression of some mature markers

B1: Wnt3a: recombinant cytokine, hepatic differentiation factor, 50 ng/ml in step 1 (protein, UniProt P56704 19-352, looked up)
Protein Wnt-3a: SYPIWWSLAVGPQYSSLGSQPILCASIPGLVPKQLRFCRNYVEIMPSVAEGIKIGIQECQHQFRGRRWNCTTVHDSLAIFGPVLDKATRESAFVHAIASAGVAFAVTRSCAEGTAAICGCSSRHQGSPGKGWKWGGCSEDIEFGGMVSREFADARENRPDARSAMNRHNNEAGRQAIASHMHLKCKCHGLSGSCEVKTCWWSQPDFRAIGDFLKDKYDSASEMVVEKHRESRGWVETLRPRYTYFKVPTERDLVYYEASPNFCEPNPETGSFGTRDRTCNVSSHGIDGCDLLCCGRGHNARAERRREKCRCVFHWCCYVSCQECTRVYDVHTCK
serum-free conditions, in the complete absence of serum cell death occurred
  induction of differentiation: differentiation was induced

— patent US10457914B2, “Optimized methods for differentiation of cells into cells with hepatocyte and hepatocyte progenitor phenotypes, cells produced by the methods, and methods for using the cells” (priority 2008, dated 2019)
